Experimental findings from PMC5130005, “Indolin-2-one compounds targeting thioredoxin reductase as potential anticancer drug leads” (Oncotarget, 2016) are described below.

As a reminder, the IC50 is the concentration that inhibits the measured activity by half.

One assay has as its system HCT 116 cells. The assay can be described thus: MTT cell viability assay, HCT 116 cells. It counts as cell-based. As to conditions: Homo sapiens, 72 h, mean ± SD of 3 experiments; for GI50: read-out: GI50 (50% growth inhibition concentration), HCT 116 cells. How it is done:
HCT 116 and MCF-7 cells were seeded in 96-well plates at a density of 1 × 10^4 cells/well and allowed to grow for 20-24 h before addition of test compounds. DMSO stocks of indolin-2-one compounds were serially diluted in medium each time an assay was performed. Cell viability was determined at the time of compound addition (time 0) and after 72 h of compound treatment by reduction of 3-(4,5-dimethylthiazol-2-yl)-2,5-diphenyltetrazolium bromide (MTT) by dehydrogenases in viable cells. MTT was added into each well (final concentration 400 μg/ml) and the plates were incubated for 4 h at 37°C. The supernatants were aspirated and upon solubilization of the formed formazan crystals in DMSO:glycine buffer pH 10.5 (ratio 4:1), absorbance at 550 nm was measured. 50% growth inhibition concentrations (GI50) and 50% lethal concentrations (LC50) values were calculated.
(Formazan colour is commonly taken as a measure of viable cells.)

The next assay deals with T1, recombinant rat TrxR (Rattus norvegicus, UniProt O89049).
T1 construct: made in house
T1 sequence (O89049 1-499): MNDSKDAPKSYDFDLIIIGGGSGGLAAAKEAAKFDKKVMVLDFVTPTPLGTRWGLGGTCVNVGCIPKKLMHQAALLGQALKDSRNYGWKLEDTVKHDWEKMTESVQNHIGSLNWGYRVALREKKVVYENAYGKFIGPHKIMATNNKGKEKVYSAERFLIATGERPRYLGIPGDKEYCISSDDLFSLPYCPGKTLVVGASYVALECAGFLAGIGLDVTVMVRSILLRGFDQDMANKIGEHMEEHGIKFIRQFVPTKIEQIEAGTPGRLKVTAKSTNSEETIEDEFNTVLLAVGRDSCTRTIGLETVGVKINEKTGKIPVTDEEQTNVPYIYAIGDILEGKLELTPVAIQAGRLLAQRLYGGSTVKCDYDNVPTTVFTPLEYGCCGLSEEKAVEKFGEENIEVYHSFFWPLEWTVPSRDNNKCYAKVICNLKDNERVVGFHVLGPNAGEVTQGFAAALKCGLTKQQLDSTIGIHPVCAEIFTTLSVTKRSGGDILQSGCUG
Kind of assay: in vitro TrxR DTNB reduction assay. The assay is classed as biochemical. The following applies: 30 min incubation, 100 nM recombinant rat TrxR, 200 μM NADPH, read-out: TrxR inhibition IC50. How it is done: In a volume of 100 μl of 50 mM Tris-HCl pH 7.5, 2 mM EDTA buffer (TE buffer), compounds of concentrations 1-100 μM were incubated with 100 nM recombinant rat TrxR and 200 μM NADPH at room temperature in 96-well plates for 30 and 60 min. The incubation was terminated by addition of 100 μl per well of 10 mM DTNB, 200 μM NADPH solution in TE buffer and immediately followed by measurement of linear increase of absorbance at 412 nm for the initial 2 min using the VersaMax microplate reader (Molecular Devices). The results were expressed as % of TrxR activity of drug-treated sample over that of DMSO control. The 50% inhibition concentration (IC50) values were calculated.

In the next assay the target is T2, TrxR in MCF-7 cells (Homo sapiens, UniProt Q16881).
T2 construct: Lysates of MCF-7 cells treated with indicated concentrations of selected SCA analogs for 10 h; endogenous in cells; host or cells: MCF-7
T2 sequence (Q16881 1-499 isoform Q16881-5): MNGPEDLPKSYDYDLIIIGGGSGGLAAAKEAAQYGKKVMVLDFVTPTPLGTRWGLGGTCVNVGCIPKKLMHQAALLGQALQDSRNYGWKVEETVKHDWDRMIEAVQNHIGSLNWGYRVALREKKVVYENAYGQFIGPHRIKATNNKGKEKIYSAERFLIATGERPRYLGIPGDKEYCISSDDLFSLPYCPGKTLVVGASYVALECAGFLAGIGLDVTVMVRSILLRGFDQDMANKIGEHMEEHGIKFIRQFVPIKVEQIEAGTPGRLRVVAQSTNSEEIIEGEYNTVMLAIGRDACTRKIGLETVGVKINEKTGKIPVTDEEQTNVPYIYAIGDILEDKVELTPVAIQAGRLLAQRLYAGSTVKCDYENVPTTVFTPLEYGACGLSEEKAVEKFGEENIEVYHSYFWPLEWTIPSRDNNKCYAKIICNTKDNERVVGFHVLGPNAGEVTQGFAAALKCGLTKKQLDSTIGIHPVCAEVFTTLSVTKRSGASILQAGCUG
Kind of assay: cellular TrxR activity in MCF-7 cell lysates (insulin reduction assay). The assay is classed as cell-based. The following applies: for cellular TrxR activity, MCF-7 cells: 10 h treatment, 20, 30, 40 and 50 μM. How it is done:
Cells were seeded onto 100 mm or 60 mm culture plates and upon reaching ~70% confluency, they were subjected to drug treatment for indicated durations. Pellets of compound-treated or DMSO control cells comprising both attached and floating cells were collected and lysed in lysis buffer (25 mM Tris-HCl pH 7.5, 100 mM NaCl, 2.5 mM EDTA, 2.5 mM EGTA, 20 mM NaF, 1 mM Na3VO4, 20 mM sodium β-glycerophosphate, 10 mM sodium pyrophosphate, 0.5% Triton X-100) with freshly added protease inhibitor cocktail (Roche Diagnostics). Prior to being used in Western blot analysis and/or cellular TrxR, GR, Trx and GPx activity determination, lysates were precleared by centrifugation and protein concentrations were determined using a modified Bradford assay (Bio-Rad Laboratories) as described in the manufacturer's manual. This procedure for collecting whole cell lysate was used for all experiments except for the Trx-redox state determination experiment. Equal amounts of protein (50 μg) in each lysate sample were separated by SDS-PAGE, followed by electroblotting onto nitrocellulose membranes. Electroblotted proteins on membranes were probed with a primary antibody and subsequently by a secondary antibody conjugated to HRP.
Freshly collected cell lysates were used for measurement of activity of cellular Trx and TrxR. To measure TrxR activity, in each well of a 96-well plate, 25 μg of cell lysate was incubated in a final volume of 50 μl containing 85 mM Hepes (pH 7.6), 0.3 mM insulin, 10 μM rhTrx1, 2.5 mM EDTA and 660 μM NADPH for 40 min at 37°C. Controls containing lysates and all reaction reagents except rhTrx1 for each lysate sample were also set up. 200 μl of 1 mM DTNB in 6 M guanidine-HCl, 200 mM Tris-HCl pH 8.0 solution was added to quench the reaction. The amount of free thiols generated from insulin reduction was determined by DTNB reduction at 412 nm using the VersaMax microplate reader. To measure Trx activity, procedures were carried out similar to those for determining cellular TrxR activity, except that the cell lysates were incubated for 20 min with 300 nM recombinant rat TrxR in place of rhTrx1. Controls containing lysates and all reaction reagents except recombinant rat TrxR for each lysate sample were also set up. For each sample, Trx or TrxR activity was calculated as the absorbance at 412 nm subtracted from that of the corresponding control and expressed as a percentage of the activity measured in DMSO-treated cells.

On to `CC(=O)/C=C1/C(=O)N(Cc2ccccc2)c2ccccc21` [Compound 5], for which, in the assay on HCT 116 cells, the LC50 (50% lethal concentration) was found to be 9.4 ± 0.3 µM and the GI50 was determined as 3.2 ± 0.1 µM. Moreover, the IC50 at recombinant rat TrxR came to 6.2 ± 1.7 µM. Besides, the “cellular TrxR activity, MCF-7 cells” value on TrxR in MCF-7 cells was “decrease in TrxR activity in a dose-dependent manner”. Besides, the “cellular TrxR activity at 40 and 50 μM, MCF-7 cells” value on TrxR in MCF-7 cells (10 h treatment, 40 and 50 μM, p < 0.05 vs DMSO) is given as “significant reduction”.
With `CC(=O)C=C1C(=O)N(C)c2ccccc21` [Compound 1, 1-methyl-3(2-oxopropylidene)indolin-2-one], the GI50 with HCT 116 cells was 11.8 ± 3.3 µM. Moreover, at recombinant rat TrxR, the IC50 was determined as 22.1 ± 1.8 µM. Besides, the “cellular TrxR activity, MCF-7 cells” value at TrxR in MCF-7 cells is on record as “did not cause apparent inhibition”.
Regarding `CN1C(=O)/C(=C/C(=O)c2ccccc2)c2ccccc21` [Compound 6], in the assay on HCT 116 cells, the LC50 (50% lethal concentration) came to 27.2 ± 2.4 µM and the GI50 stood at 8.5 ± 0.8 µM. For the same compound, at recombinant rat TrxR, the IC50 is 14.7 ± 3.2 µM. The “cellular TrxR activity, MCF-7 cells” value on TrxR in MCF-7 cells is “did not cause apparent inhibition”.
Turning to `CCCCN1C(=O)/C(=C/C(C)=O)c2ccccc21` [Compound 4], in the assay with HCT 116 cells, the LC50 (50% lethal concentration) came out at 9.7 ± 0.2 µM and the GI50 is 4.5 ± 0.9 µM. The IC50 on recombinant rat TrxR amounted to 8.6 ± 0.9 µM. For the same compound, the “cellular TrxR activity, MCF-7 cells” value at TrxR in MCF-7 cells was “decrease in TrxR activity in a dose-dependent manner”.
